From ChEMBL document CHEMBL5104172, “Design, synthesis, and antibacterial activity of derivatives of Tryptophanyl-tRNA synthetase inhibitor indolmycin” (Eur J Med Chem, 2022) come the findings set out here.

≈ marks a conversion by molar mass, not a printed value.

Data set [1] concerns Staphylococcus aureus. Briefly: Antibacterial activity against methicillin-sensitive Staphylococcus aureus MSSA17-3 measured by liquid dilution method. Type of data set: functional.
Data set [2] relates to Staphylococcus aureus. Briefly: Antibacterial activity against methicillin-resistant Staphylococcus aureus ATCC 33591 measured by liquid dilution method. The data set is classed as functional.
Data set [3] relates to Staphylococcus aureus. The data set can be described thus: Antibacterial activity against vancomycin-intermediate Staphylococcus aureus ATCC 700699 measured by liquid dilution method. The data set is classed as functional.
The test system of data set [4] is Staphylococcus aureus. Briefly: Antibacterial activity against methicillin-resistant Staphylococcus aureus ATCC 43300 measured by liquid dilution method. Type of data set: functional.
Data set [5] concerns Enterococcus faecium. The data set can be described thus: Antibacterial activity against Enterococcus faecium EFM17-1 measured by liquid dilution method. Type of data set: functional.
The test system of data set [6] is Staphylococcus epidermidis. The data set can be described thus: Antibacterial activity against methicillin-resistant Staphylococcus epidermidis MRSE17-2 measured by liquid dilution method. The data set is classed as functional.
In data set [7] the test system is Staphylococcus epidermidis. The data set can be described thus: Antibacterial activity against methicillin-resistant Staphylococcus epidermidis MRSE17-3 measured by liquid dilution method. The data set is classed as functional.
Data set [8] relates to Staphylococcus aureus. Briefly: Antibacterial activity against methicillin-resistant Staphylococcus aureus MRSA17-1 measured by liquid dilution method. The data set is classed as functional.
Data set [9] deals with Enterococcus faecalis. The data set can be described thus: Antibacterial activity against Enterococcus faecalis ATCC 29212 measured by liquid dilution method. The data set is classed as functional.
Data set [10] has as its system Staphylococcus aureus. Briefly: Antibacterial activity against vancomycin-intermediate Staphylococcus aureus ATCC 700788 measured by liquid dilution method. The data set is classed as functional.
In data set [11] the test system is Staphylococcus epidermidis. The data set can be described thus: Antibacterial activity against methicillin-sensitive Staphylococcus epidermidis MSSE17-1 measured by liquid dilution method. The data set is classed as functional.
Data set [12] has as its system Staphylococcus aureus. The data set can be described thus: Antibacterial activity against methicillin-sensitive Staphylococcus aureus MSSA17-2 measured by liquid dilution method. Type of data set: functional.
For data set [13], the system named is Staphylococcus aureus. The data set can be described thus: Antibacterial activity against methicillin-resistant Staphylococcus aureus MRSA17-5 measured by liquid dilution method. The data set is classed as functional.
Data set [14] concerns Staphylococcus epidermidis. The data set can be described thus: Antibacterial activity against methicillin-resistant Staphylococcus epidermidis MRSE17-6 measured by liquid dilution method. Type of data set: functional.
Data set [15] relates to Enterococcus faecium. Briefly: Antibacterial activity against Enterococcus faecium EFM17-2 measured by liquid dilution method. Type of data set: functional.
For data set [16], the system named is Staphylococcus epidermidis. The data set can be described thus: Antibacterial activity against methicillin-sensitive Staphylococcus epidermidis MSSE17-3 measured by liquid dilution method. The data set is classed as functional.
Data set [17] relates to Staphylococcus aureus. The data set can be described thus: Antibacterial activity against methicillin-resistant Staphylococcus aureus MRSA17-2 measured by liquid dilution method. The data set is classed as functional.
The test system of data set [18] is Enterococcus faecalis. The data set can be described thus: Antibacterial activity against Enterococcus faecalis EFA17-1 measured by liquid dilution method. Type of data set: functional.
Data set [19] concerns Staphylococcus aureus. Briefly: Antibacterial activity against methicillin-sensitive Staphylococcus aureus MSSA17-1 measured by liquid dilution method. The data set is classed as functional.
For data set [20], the system named is Staphylococcus epidermidis. The data set can be described thus: Antibacterial activity against methicillin-resistant Staphylococcus epidermidis MRSE17-1 measured by liquid dilution method. The data set is classed as functional.
Data set [21] relates to Staphylococcus aureus. The data set can be described thus: Antibacterial activity against methicillin-resistant Staphylococcus aureus MRSA17-6 measured by liquid dilution method. Type of data set: functional.
Data set [22] concerns Staphylococcus epidermidis. The data set can be described thus: Antibacterial activity against methicillin-resistant Staphylococcus epidermidis MRSE17-4 measured by liquid dilution method. The data set is classed as functional.
Data set [23] concerns Staphylococcus aureus. The data set can be described thus: Antibacterial activity against methicillin-resistant Staphylococcus aureus MRSA17-3 measured by liquid dilution method. Type of data set: functional.
Data set [24] deals with Staphylococcus epidermidis. Briefly: Antibacterial activity against methicillin-sensitive Staphylococcus epidermidis MSSE17-2 measured by liquid dilution method. Type of data set: functional.
In data set [25] the test system is Staphylococcus aureus. Briefly: Antibacterial activity against Staphylococcus aureus ATCC 29213 measured by liquid dilution method. The data set is classed as functional.
The nature of data set [26]: Plasma protein binding in CD-1 mouse plasma incubated for 4 hrs and assessed as unbound fraction at 2 uM measured by LC/MS/MS analysis. The data set is classed as ADME, cell-free.
Data set [27] can be described thus: Plasma protein binding in CD-1 mouse plasma incubated for 4 hrs at 2 uM measured by LC/MS/MS analysis. Type of data set: ADME, cell-free. To be noted: read-out: PPB (converted).

For orientation: MIC means the smallest concentration in the dilution series that meets the test's criterion for growth inhibition. High values mean a less susceptible organism, low ones a more susceptible organism. As to `CNC1=NC(=O)[C@@H]([C@@H](C)c2c[nH]c3cccc(F)c23)O1`, the MIC (in the data set on Staphylococcus aureus [1]; against Staphylococcus aureus [2]; in the data set on Staphylococcus aureus [3]; with Staphylococcus aureus [4]; with Enterococcus faecium [5]; in data set [6]) was greater than 128 µg/mL each time. Moreover, the minimum inhibitory concentration (MIC) (in data set [7]; against Staphylococcus aureus [8]; against Enterococcus faecalis [9]; in the data set on Staphylococcus aureus [10]; in data set [11]; in the data set on Staphylococcus aureus [12]) was greater than 128 µg/mL in each case. Moreover, the MIC (with Staphylococcus aureus [13]; in [14]; against Enterococcus faecium [15]; in data set [16]; against Staphylococcus aureus [17]; against Enterococcus faecalis [18]) was greater than 128 µg/mL throughout. Further, the MIC (in the data set with Staphylococcus aureus [19]; in data set [20]; in the data set on Staphylococcus aureus [21]; in data set [22]; against Staphylococcus aureus [23]; in data set [24]) was greater than 128 µg/mL throughout. In the data set on Staphylococcus aureus [25], the MIC is greater than 128 µg/mL.

`CNC1=NC(=O)[C@@H]([C@@H](C)c2c[nH]c3ccccc23)O1`: the MIC (in the data set on Staphylococcus aureus [1]; against Staphylococcus aureus [2]; against Staphylococcus aureus [3]; against Staphylococcus aureus [4]; against Enterococcus faecium [5]; in [6]) was greater than 128 µg/mL each time. Besides, the minimum inhibitory concentration (MIC) (in data set [7]; against Staphylococcus aureus [8]; in the data set with Enterococcus faecalis [9]; in the data set on Staphylococcus aureus [10]; in data set [11]; against Staphylococcus aureus [12]) was greater than 128 µg/mL each time. Further, the MIC (in the data set on Staphylococcus aureus [13]; in data set [14]; against Enterococcus faecium [15]; in data set [16]; in the data set with Staphylococcus aureus [17]; in the data set on Enterococcus faecalis [18]) was greater than 128 µg/mL throughout. Also, the MIC (in the data set on Staphylococcus aureus [19]; in data set [20]; against Staphylococcus aureus [21]; in data set [22]; with Staphylococcus aureus [23]; in data set [24]) was greater than 128 µg/mL in each case. The molecule further showed an MIC with Staphylococcus aureus [25] greater than 128 µg/mL.

As to `CC(=O)CC(c1ccccc1)c1c(O)c2ccccc2oc1=O` (configuration not stated) [WARFARIN], the fraction unbound at 4 h, 2 µM in data set [26] and in data set [27] was 0.098 each time.

Take `CNC1=NC(=O)[C@@H]([C@@H](C)c2c[nH]c3cccc(Cl)c23)O1`: the MIC against Staphylococcus aureus [1] was 64 µg/mL (≈ 219 µM); in the data set on Staphylococcus aureus [2] it was 64 µg/mL (≈ 219 µM); in the data set with Staphylococcus aureus [3], greater than 128 µg/mL; against Staphylococcus aureus [4], 64 µg/mL (≈ 219 µM); with Enterococcus faecium [5] it was greater than 128 µg/mL; in [6], 128 µg/mL (≈ 439 µM). Moreover, the minimal inhibitory concentration (MIC) in [7] is greater than 128 µg/mL; in the data set with Staphylococcus aureus [8], 64 µg/mL (≈ 219 µM); with Enterococcus faecalis [9], greater than 128 µg/mL; against Staphylococcus aureus [10], 128 µg/mL (≈ 439 µM); in data set [11], greater than 128 µg/mL; with Staphylococcus aureus [12], 64 µg/mL (≈ 219 µM). Besides, the MIC in the data set with Staphylococcus aureus [13] was 64 µg/mL (≈ 219 µM); in data set [14] it was 64 µg/mL (≈ 219 µM); with Enterococcus faecium [15], greater than 128 µg/mL; in data set [16], greater than 128 µg/mL; against Staphylococcus aureus [17], 64 µg/mL (≈ 219 µM); in the data set on Enterococcus faecalis [18], greater than 128 µg/mL. For the same molecule, the MIC in the data set with Staphylococcus aureus [19] was 64 µg/mL (≈ 219 µM); in data set [20], 128 µg/mL (≈ 439 µM); with Staphylococcus aureus [21] it was 64 µg/mL (≈ 219 µM); in [22], 64 µg/mL (≈ 219 µM); in the data set with Staphylococcus aureus [23] it was 64 µg/mL (≈ 219 µM); in data set [24], greater than 128 µg/mL. This molecule had a minimal inhibitory concentration (MIC) in the data set on Staphylococcus aureus [25] of 64 µg/mL (≈ 219 µM).
